Source: US10376520B2, “Methods for the treatment of cardiovascular disorders” (Galapagos NV, priority 2015, dated 2019)

Test system: Subjects With Active Crohn's Disease
Test: LDL determination, Study 5 (Crohn's disease)
Assay type: in vivo, human
Conditions: for [LDL] Median CFB - 10 weeks results: 200 mg q.d. (N = 130)
Source text: Double-Blind, Randomized, Placebo-Controlled, Multi-Centre Study to Investigate the Efficacy and Safety of Compound 1 in Subjects With Active Crohn's Disease With Evidence of Mucosal Ulceration.
This is a double-blind, randomized, placebo-controlled, multi-centre Phase 2 study to investigate the efficacy and safety of Compound 1 administered once daily for the treatment of active CD with evidence of mucosal ulceration. The pharmacokinetics (including a PK substudy) and pharmacodynamics of Compound 1 and metabolite in CD will also be characterised.
A total of 180 eligible subjects will be randomized to receive Compound 1 or placebo in addition to their stable background treatment (eg, corticosteroids, aminosalicylates, or CD-related antibiotics). The study will consist of 2 parts, with total treatment duration of 20 weeks. Randomization in Part 1 will be stratified according the subject's previous anti-TNF exposure/response, CRP level at Screening, and oral corticosteroid use at visit Day −1.
After the first 10 weeks of treatment in Part 1, patients will be re-randomized for Part 2 as shown in the diagram below and will be stratified according to the subject's clinical response, previous anti-TNF exposure/response, and oral corticosteroid use at visit Day −1.
The following assays were conducted at Eurofins Global Central Laboratory, Bergschot 71, 4817 PA Breda, The Netherlands, and at Quest Diagnostics, Clinical Trials, Quest House, 125-135 Staines Road, Hounslow, Middlesex, TW3 3JB, United Kingdom. The assays for Study 5 were performed at BARC Europe, 3B, Industrie Park, Zwijnaarde, B-9052 Ghent, Belgium.
The determination of [LDL]-cholesterol is made using an automated method taking advantage of the selective micellary solubilization of [LDL]-cholesterol by a nonionic detergent and the interaction of a sugar compound and lipoproteins (VLDL and chylomicrons).
When a detergent is included in the enzymatic method for cholesterol determination (cholesterol esterase, cholesterol oxidase coupling reaction), the relative reactivities of cholesterol in the lipoprotein fractions increase in this order: [HDL]<chylomicrons <VLDL <[LDL]. In the presence of Mg^2+, a sugar compound markedly reduces the enzymatic reaction of the cholesterol measurement in VLDL and chylomicrons. The combination of a sugar compound with detergent enables the selective determination of [LDL]-cholesterol in serum. (Friedewald et al., 1972; Rifai et al., 1992)
Homogeneous enzymatic colorimetric assay.
In the presence of peroxidase, the hydrogen peroxide generated reacts with 4-aminoantipyrine and Sodium N-(2-hydroxy-3-sulfopropyl)-3,5-dimethoxyaniline (HSDA) to form a purple-blue dye.
The color intensity of this dye is directly proportional to the cholesterol concentration and is measured photometrically.
Human serum and plasma samples [LDL] determination was done on a Roche/Hitachi Cobas c 701/702 system which automatically calculate the analyte concentration of each sample. Samples containing precipitates are centrifuged before performing the assay.

[1] = 200 mg q.d. continued to week 20, week 2
[2] = 200 mg q.d. continued to week 20, week 4
[3] = 200 mg q.d. continued to week 20, week 6
[4] = 200 mg q.d. continued to week 20, week 10
[5] = 200 mg q.d. continued to week 20, week 12
[6] = 200 mg q.d. continued to week 20, week 16
[7] = 200 mg q.d. continued to week 20, week 20
[8] = 200 mg q.d. week 0 to 10, then 100 mg q.d. (N = 30), week 2
[9] = 200 mg q.d. week 0 to 10, then 100 mg q.d. (N = 30), week 4
[10] = 200 mg q.d. week 0 to 10, then 100 mg q.d. (N = 30), week 6
[11] = 200 mg q.d. week 0 to 10, then 100 mg q.d. (N = 30), week 10
[12] = 200 mg q.d. week 0 to 10, then 100 mg q.d. (N = 30), week 12
[13] = 200 mg q.d. week 0 to 10, then 100 mg q.d. (N = 30), week 16
[14] = 200 mg q.d. week 0 to 10, then 100 mg q.d. (N = 30), week 20
[15] = 200 mg q.d. week 0 to 10, then placebo (N = 23), week 2
[16] = 200 mg q.d. week 0 to 10, then placebo (N = 23), week 4
[17] = 200 mg q.d. week 0 to 10, then placebo (N = 23), week 6
[18] = 200 mg q.d. week 0 to 10, then placebo (N = 23), week 10
[19] = 200 mg q.d. week 0 to 10, then placebo (N = 23), week 12
[20] = 200 mg q.d. week 0 to 10, then placebo (N = 23), week 16
[21] = 200 mg q.d. week 0 to 10, then placebo (N = 23), week 20
[22] = 200 mg q.d. week 0 to 10, to 100 mg q.d. week 10 to 20, week 2
[23] = 200 mg q.d. week 0 to 10, to 100 mg q.d. week 10 to 20, week 4
[24] = 200 mg q.d. week 0 to 10, to 100 mg q.d. week 10 to 20, week 6
[25] = 200 mg q.d. week 0 to 10, to 100 mg q.d. week 10 to 20, week 10
[26] = 200 mg q.d. week 0 to 10, to 100 mg q.d. week 10 to 20, week 12

Compound: O=C(Nc1nc2cccc(-c3ccc(CN4CCS(=O)(=O)CC4)cc3)n2n1)C1CC1 [Compound 1, cyclopropanecarboxylic acid {5-[4-(1,1-dioxo-thiomorpholin-4-ylmethyl)-phenyl]-[1,2,4]triazolo[1,5-a]pyridin-2yl}-amide]
- [LDL] Median CFB - 10 weeks results (week 2): -0.050 mmol/L
- [LDL] Median CFB - 10 weeks results (week 4): -0.050 mmol/L
- [LDL] Median CFB - 10 weeks results (week 6): 0.025 mmol/L
- [LDL] Median CFB - 10 weeks results (week 10): 0.160 mmol/L
- [LDL] Mean CFB - 20 weeks results [1]: 3.14%
- [LDL] Median CFB - 20 weeks results [1]: −2.51%
- [LDL] Mean CFB - 20 weeks results [2]: 1.21%
- [LDL] Median CFB - 20 weeks results [2]: −2.16%
- [LDL] Mean CFB - 20 weeks results [3]: 0.73%
- [LDL] Median CFB - 20 weeks results [3]: −0.61%
- [LDL] Mean CFB - 20 weeks results [4]: 14.77%
- [LDL] Median CFB - 20 weeks results [4]: 8.26%
- [LDL] Mean CFB - 20 weeks results [5]: 9.98%
- [LDL] Median CFB - 20 weeks results [5]: 5.42%
- [LDL] Mean CFB - 20 weeks results [6]: 12.35%
- [LDL] Median CFB - 20 weeks results [6]: 7.42%
- [LDL] Mean CFB - 20 weeks results [7]: 11.56%
- [LDL] Median CFB - 20 weeks results [7]: 6.93%
- [LDL] Mean CFB - 20 weeks results [8]: -0.02 mmol/L
- [LDL] Median CFB - 10 weeks results 20 weeks results [8]: -0.05 mmol/L
- [LDL] Mean CFB - 20 weeks results [9]: 0.00 mmol/L
- [LDL] Median CFB - 10 weeks results 20 weeks results [9]: -0.10 mmol/L
- [LDL] Mean CFB - 20 weeks results [10]: 0.00 mmol/L
- [LDL] Median CFB - 10 weeks results 20 weeks results [10]: 0.04 mmol/L
- [LDL] Mean CFB - 20 weeks results [11]: 0.10 mmol/L
- [LDL] Median CFB - 10 weeks results 20 weeks results [11]: 0.17 mmol/L
- [LDL] Mean CFB - 20 weeks results [12]: 0.10 mmol/L
- [LDL] Median CFB - 10 weeks results 20 weeks results [12]: 0.19 mmol/L
- [LDL] Mean CFB - 20 weeks results [13]: 0.01 mmol/L
- [LDL] Median CFB - 10 weeks results 20 weeks results [13]: -0.05 mmol/L
- [LDL] Mean CFB - 20 weeks results [14]: 0.01 mmol/L
- [LDL] Median CFB - 10 weeks results 20 weeks results [14]: 0.04 mmol/L
- [LDL] Mean CFB - 20 weeks results [15]: 0.037 mmol/L
- [LDL] Median CFB - 10 weeks results 20 weeks results [15]: 0.02 mmol/L
- [LDL] Mean CFB - 20 weeks results [16]: -0.017 mmol/L
- [LDL] Median CFB - 10 weeks results 20 weeks results [16]: 0.05 mmol/L
- [LDL] Mean CFB - 20 weeks results [17]: 0.085 mmol/L
- [LDL] Median CFB - 10 weeks results 20 weeks results [17]: 0.09 mmol/L
- [LDL] Mean CFB - 20 weeks results [18]: 0.077 mmol/L
- [LDL] Median CFB - 10 weeks results 20 weeks results [18]: 0.03 mmol/L
- [LDL] Mean CFB - 20 weeks results [19]: 0.105 mmol/L
- [LDL] Median CFB - 10 weeks results 20 weeks results [19]: 0.12 mmol/L
- [LDL] Mean CFB - 20 weeks results [20]: 0.222 mmol/L
- [LDL] Median CFB - 10 weeks results 20 weeks results [20]: 0.08 mmol/L
- [LDL] Mean CFB - 20 weeks results [21]: 0.205 mmol/L
- [LDL] Median CFB - 10 weeks results 20 weeks results [21]: 0.11 mmol/L
- [LDL] Mean CFB - 20 weeks results [22]: 2.17%
- [LDL] Median CFB - 20 weeks results [22]: −1.37%
- [LDL] Mean CFB - 20 weeks results [23]: 4.07%
- [LDL] Median CFB - 20 weeks results [23]: −1.98%
- [LDL] Mean CFB - 20 weeks results [24]: 2.59%
- [LDL] Median CFB - 20 weeks results [24]: 1.25%
- [LDL] Mean CFB - 20 weeks results [25]: 5.40%
- [LDL] Median CFB - 20 weeks results [25]: 7.46%
- [LDL] Mean CFB - 20 weeks results [26]: 5.91%
- [LDL] Median CFB - 20 weeks results [26]: 6.39%
